Results as given in patent publication US6358969B1, “3-desmethylrapamycin or derivatives thereof, processes for their preparation and their use as antifungal agents and immunosuppressants” (SmithKline Beecham p.l.c., priority 1991, dated 2002).
≈ marks a conversion by molar mass, not a printed value. Like-named read-outs stand apart in the source and are kept apart here.

Experiments:
Type in all cases: cell-based
Aspergillus niger [1] = assay: Spectrum of activity, agar diffusion zones of inhibition; conditions: SAB agar, 24 hours, read-out: Zones of inhibition (diameter)
Procedure: (§1) Method—The spectrum of activity was determined by placing solutions of the compound, prepared in sodium phosphate buffer, pH 6.6, in wells in seeded Sabouraud's Dextrose Agar. Activity was assessed by measuring the zones of inhibition following incubation at 37° C. (yeasts and Aspergillus niger) or 30° C. (other filamentous fungi) for 24 hours.

Candida albicans 73/079 = assay: as above; conditions: SAB agar, 24 hours, read-out: Zones of inhibition (diameter)
Procedure: as §1

[2] = test system: Crytococcus neoformans 451; assay: as above; conditions: SAB agar, 24 hours, read-out: Zones of inhibition (diameter)
Procedure: as §1

[3] = test system: Hendersonula torulides TH65; assay: as above; conditions: SAB agar, 24 hours, read-out: Zones of inhibition (diameter)
Procedure: as §1

Paecilomyces varioti = assay: as above; conditions: SAB agar, 24 hours, read-out: Zones of inhibition (diameter)
Procedure: as §1

[4] = test system: Pityrosporum canis 0024RE; assay: as above; conditions: SAB agar, 24 hours, read-out: Zones of inhibition (diameter)
Procedure: as §1

Rhizopus oryzae 21602 = assay: as above; conditions: Rhizopus arrhizus, SAB agar, 24 hours, read-out: Zones of inhibition (diameter)
Procedure: as §1

Saccharomyces cerevisiae = assay: as above; conditions: SAB agar, 24 hours, read-out: Zones of inhibition (diameter)
Procedure: as §1

[5] = test system: Trichophyton mentagrophytes 569A; assay: as above; conditions: SAB agar, 24 hours, read-out: Zones of inhibition (diameter)
Procedure: as §1

Aspergillus niger [6] = assay: Minimal Inhibitory Concentration, broth microtitre dilution; conditions: 37° C., inoculum 10^4 spores/ml, read-out: Minimum Inhibitory Concentration (MIC)
Procedure: (§2) Method—The Minimal Inhibitory Concentration (MIC) was determined by diluting the compound in a broth medium in a microtitre tray. The organisms were diluted and added to the wells to provide a final inoculum of approximately 10^5 cells per ml or 10^4 fungal spores per ml. The trays were incubated at 37° C. and the turbidity of each well noted at intervals. The (MIC) was taken as the lowest concentration (in mg/ml) which prevented significant growth.

Candida albicans 731079 = assay: as above; conditions: 37° C., inoculum 10^5 cells/ml, read-out: Minimum Inhibitory Concentration (MIC)
Procedure: as §2

[7] = test system: yeasts and filamentous fungi; assay: Agar diffusion test, overall spectrum of activity; conditions: summary of Table 1
Procedure: as §1

Candida albicans = assay: Antifungal activity (stated characteristic of the compound)

For `COC1CC2CCC(C)C(O)(O2)C(=O)C(=O)N2CCCCC2C(=O)OC(C(C)CC2CCC(O)C(OC)C2)CC(=O)C(C)/C=C(\C)C(O)C(O)C(=O)C(C)CC(C)/C=C/C=C/C=C/1C` (stereo not drawn), the zone of inhibition at 100 µg/mL (Aspergillus niger [1]; CONC 100 μg/ml) was 46 mm, the zone of inhibition at 500 µg/mL (Aspergillus niger [1]; CONC 500 μg/ml) was 47 mm and the zone of inhibition at 100 µg/mL (Candida albicans 73/079; CONC 100 μg/ml) was 29 mm. The zone of inhibition at 500 µg/mL (Candida albicans 73/079; CONC 500 μg/ml) was 29 mm, the zone of inhibition at 100 µg/mL ([2]; CONC 100 μg/ml) was 29 mm and the zone of inhibition at 500 µg/mL ([2]; CONC 500 μg/ml) was 29 mm. For the same molecule, the zone of inhibition at 100 µg/mL ([3]; CONC 100 μg/ml) was 33 mm, the zone of inhibition at 500 µg/mL ([3]; CONC 500 μg/ml) was 36 mm and the zone of inhibition at 100 µg/mL (Paecilomyces varioti; CONC 100 μg/ml) was 26 mm. It also gave a zone of inhibition at 500 µg/mL (Paecilomyces varioti; CONC 500 μg/ml) of 28 mm, a zone of inhibition at 100 µg/mL ([4]; CONC 100 μg/ml) of 0 mm and a zone of inhibition at 500 µg/mL ([4]; CONC 500 μg/ml) of 0 mm. It also gave a zone of inhibition at 100 µg/mL (Rhizopus oryzae 21602; CONC 100 μg/ml) of 46 mm, a zone of inhibition at 500 µg/mL (Rhizopus oryzae 21602; CONC 500 μg/ml) of 47 mm and a zone of inhibition at 100 µg/mL (Saccharomyces cerevisiae; CONC 100 μg/ml) of 34 mm. For the same molecule, the zone of inhibition at 500 µg/mL (Saccharomyces cerevisiae; CONC 500 μg/ml) was 33 mm, the zone of inhibition at 100 µg/mL ([5]; CONC 100 μg/ml) was 42 mm and the zone of inhibition at 500 µg/mL ([5]; CONC 500 μg/ml) was 43 mm. The MIC (Aspergillus niger [6]; 24 h, day 1 of incubation) was 16 µg/mL (≈ 17.8 µM), the MIC (Aspergillus niger [6]; 48 h, day 2 of incubation) was 32 µg/mL (≈ 35.5 µM) and the MIC (Candida albicans 731079; Candida albicans, 731079, 24 h, day 1 of incubation) was 32 µg/mL (≈ 35.5 µM). The MIC (Candida albicans 731079; Candida albicans, 731079, 48 h, day 2 of incubation) was 32 µg/mL (≈ 35.5 µM), the “Spectrum of activity in the agar diffusion test” value [7] was “broad spectrum activity” and the “Antifungal activity against Candida albicans” value (Candida albicans) was “shows antifungal activity”.
